Patent US7166472B2, “Method for the identification of agents that inhibit or promote cataracts and uses thereof” (The General Hospital Corporation, priority 2000, dated 2007)
Changes are numbered by the printed parent chain.

Legend:
[1] = Hydrogen peroxide assay (DCF fluorometric); assay type: biochemical; settings: for hydrogen peroxide generated: ambient gas conditions, CHELEX-treated PBS, FIG. 4C
Experimental: Hydrogen Peroxide Assay—The fluorometric assay for hydrogen peroxide is based on the dichlorofluorescein diacetate (DCF) method (Molecular Probes, Eugene, Oreg.). The DCF solution (5 mM) in 100% ethanol was deacetylated in the presence of 0.01 M NaOH for 30 minutes and neutralized. Horseradish peroxidase (200 U/ml) was then added and the DCF concentration adjusted to 200 μM in PBS. The reaction solutions were carried out in PBS, pH 7.4, in a 96-well format plate (total volume=300 μL/well) and contained a test compound (KYN, 3-HK, 3-HAA, ANA, or ASC, each at 10 μM), deacetylated DCF (20 μM), and Cu(II)-glycine (1 μM) as indicated, incubated at 37° C. for 60 minutes. […] Abolition of the reading by co-incubation with catalase (1000 U/ml) was used for establishing H2O2 specificity. The fluorescent readings were recorded by a Packard FLURORCOUNT™ fluorescent plate reader with a 485 nm excitation filter and 530 nm emission filter. Concentrations were determined by comparison to a standard curve using reagent grade hydrogen peroxide in CHELEX™ chelating ion exchanae resin-treated PBS buffer, pH 7.4.
Reactions were conducted in the absence of added Cu(II), in the presence of added glycine-complexed Cu(II) (1 μM), in the presence of added glycine-complexed Cu(II) (1 μM) and catalase (1000 U/ml), or with added glycine-complexed Cu(II) (1 μM) and the copper chelator triethylenetetramine (TETA, 200 μM).

[2] = Cyclic voltammetry of kynurenine metabolites with Cu(II); assay type: physicochemical; settings: metabolite 100 μM, cupric chloride 25 μM, PBS pH 7.4
Experimental: Cyclic Voltammetry—Cyclic voltammetry was performed at room temperature (22±2° C.) on ambient solutions using an EG&G PAR potentiostat, Model 273. The potentiostat was operated in Ramp Mode, generating a potential staircase waveform with a 0.25 mV step height. The potential window of +0.15 to −0.4V, in which Cu(I) is electroactive, but the metabolites are not, was scanned in both directions at a rate of 100 mV/sec. The current response was passed through a 5.3 Hz low pass filter. A minimum of three cycles were collected for each scan, ensuring the stability of the electrochemical response. The electrochemical cell consisted of an indium/tin oxide working electrode (Delta Technologies) with an active area of 0.32 cm^2, a platinum wire auxiliary electrode, and a Ag/AgCl (1 M KCl) reference electrode (Microelectrodes Inc.). Both the auxiliary and reference electrodes were positioned in the cell in close proximity to the working electrode. The working electrodes were pretreated with successive 10 minute sonications in Alconox (˜8 g/L), 95% ethanol, Milli-Q purified H2O (2×), and PBS (pH 7.4), followed by an overnight soak in PBS (pH 7.4). The ITO electrodes were subsequently “activated” immediately prior to use by successive cycling in PBS for three cycles in each of the following potential windows: +0.15 ? −0.4 V, +0.4 ? −0.4 V, and +1.0 ? −0.4 V. Cupric chloride (25 μM; Allied Chemical) was used as the Cu(II) source. Background voltammograms were obtained on each new electrode before testing the kynurenine pathway metabolites. PBS solutions of KYN, 3-HK, ANA, and 3-HAA (each at 100 μM) were separately scanned with and without added Cu(II) (25 μM). Each experiment also included a scan of Cu(II) (25 μM) in PBS without added test compound. All solutions were tested within minutes of being prepared. Each test was repeated to ensure the reproducibility of the results.
The voltammograms in FIGS. 3A–3D compare 3-HK and 3-HAA to their corresponding non-phenolic analogs, kynurenine (KYN) and anthranilic acid (ANA), in aqueous solutions of Cu(II) at pH 7.4. […] At potentials above +0.15 V, the metabolites undergo direct irreversible oxidation, a reaction that is not considered further here. Cyclic voltammetry of Cu(II) in PBS yielded a current response at ≈−100 mV due to reduction of the metal ion (scan “b” in each panel).

[3] = Superoxide assay (dihydroethidium fluorometric); assay type: biochemical; settings: for effect of Cu(II) on superoxide generation / superoxide production: test compound 10 μM; for effect of Cu(II) on superoxide generation: Cu(II)-glycine 1 μM; for superoxide production: ambient oxygen, dark, 60 minutes
Experimental: Superoxide Assay—The fluorometric assay for superoxide is based upon the dihydroethidium (DHE, HYDROETHDNE™) method (Molecular Probes, Eugene, Oreg.) and used according to the manufacturer's instructions. DHE (1 mM) was freshly prepared in 100% argon-sparged DMSO. The reaction solutions were carried out in PBS, pH 7.4, under ambient gas conditions, in 96-well format plates and contained a test compound (KYN, 3-HK, 3-HAA, and ANA, each at 10 μM), DHE (100 μM), +/− Cu(II)-glycine (1 μM) and incubated at 37EC for 60 minutes. […] Abolition of the reading by co-incubation with superoxide dismutase (1000 U/ml) was used for establishing superoxide specificity. The fluorescent readings were recorded by a Packard FLUOROCOUNT™ fluorescent plate reader with a 510 nm excitation filter and 590 nm emission filter. Potassium superoxide dissolved in degassed DMSO was used as a positive control.

[4] = biological target: T1, recombinant human αB-crystallin (Homo sapiens, UniProt P02511); assay: Recombinant human αB-crystallin cross-linking (SDS-PAGE, silver stain); assay type: biochemical; settings: data not shown
T1 construct: gift of Dr. J. Liang, Brigham and Women's Hospital
T1 sequence (P02511 1-175): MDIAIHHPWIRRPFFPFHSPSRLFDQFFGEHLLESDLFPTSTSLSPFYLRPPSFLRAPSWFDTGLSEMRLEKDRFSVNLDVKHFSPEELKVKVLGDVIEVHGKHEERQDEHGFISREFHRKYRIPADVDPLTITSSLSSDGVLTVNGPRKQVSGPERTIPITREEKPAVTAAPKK
Experimental: Various solutions containing 3-HK (10 μM) or other kynurenine pathway metabolites (10 μM), Cu(II)-glycine (10 μM), Fe(III)-citrate (10 μM), and triethylenetetramine (TETA, 200 μM), were added in combinations as indicated. […] After incubation, aliquots of the total lens protein solutions were mixed with sample buffer containing 4% SDS and 5% β-mercaptoethanol, heated to 95° C. for 5 minutes, and loaded at 1 μg/lane on a 10–20% Tricine gel (Novex, San Diego, Calif.). […] For the experiments with recombinant αB-crystallin, aliquots of the protein solutions were mixed with sample running buffer containing NuPAGE sample buffer (Novex, San Diego, Calif.) and 10% β-mercaptoethanol, heated to 95° C. for 5 minutes, spun briefly, then loaded on a NuPAGE 4–12% Bis-Tris polyacrylamide gel at 375 ng/lane and electrophoresed with denaturing 3-(N-morpholino)propanesulfonic acid (MOPS)-SDS running buffer according to the manufacturer's recommendations.
To exclude the effects of other lens proteins on the observed findings in FIG. 5, these interactions with purified recombinant human αB-crystallin were examined.

[5] = Metal reduction assay, Cu(II) to Cu(I) (BC/BCA indicator); assay type: biochemical; settings: chelator 250 μM
Experimental: Metal Reduction Assays—Assays were performed using a 96-well microtiter plate (Costar, Mass.). Test compounds from the kynurenine pathway (10 μM) or, as a positive control, ascorbic acid (ASC, 10 μM) were co-incubated with either Fe(III)-citrate (25 μM) and the Fe(II) indicator bathophenanthroline disulfonic acid (BP, 250 μM), or Cu(II)-glycine (25 μM) and the Cu(I) indicator bathocuproine disulfonic acid (BC) or bicinchoninic acid (BCA, 250 μM). Incubations were conducted in PBS, pH 7.4, at 37° C. in the dark for one hour. Absorbencies were then measured using a plate reader (SPECTRAmax Plus, Molecular Devices, CA) at the appropriate wavelengths: Fe(II)-BP complex at 535 nm (the known molar absorption coefficient, M535,=22140 M^−1 cm^−1), Cu(I)-BC complex at 483 nm, M483=12250 M^−1cm^−1), or Cu(I)-BCA complex at 562 nm, M562=7700 M^−1cm^−1). In control samples, absorbance from the metal ion and indicator in the absence of test compound and the absorbance of test compound in the presence of metal ions, but in the absence of indicator, were determined. The absorbencies from these controls were deducted from those obtained in the presence of the test compound, metal and indicator to yield the net absorbance (ΔA). Fe(II) or Cu(I) concentrations (μM) were calculated according to the formula: C(μM)=ΔA*10^6/Mλ.
The compounds comprising the kynurenine pathway (FIG. 1) were assayed for their ability to reduce […] and Cu(II) (FIG. 2A). […] Values represent the mean±SD for three independent measurements.

[6] = biological target: T2, αB-crystallin (Bos taurus, UniProt P02510); assay: αB-crystallin cross-linking in total calf lens protein (Western blot); settings: metabolite 10 μM, no added Cu(II), five days 37° C. dark
T2 sequence (P02510 1-175): T1 sequence (P02511 1-175) with T40A, F61I, T132A, V152A

[7] = biological target: T3, α-crystallin (Bos taurus, UniProt P02470+P02510); assay: α-Crystallin modification under longwave ultraviolet illumination; assay type: biochemical; settings: exposure of α-crystallin in the presence of longwave ultraviolet illumination
T3 sequence (P02470 1-173): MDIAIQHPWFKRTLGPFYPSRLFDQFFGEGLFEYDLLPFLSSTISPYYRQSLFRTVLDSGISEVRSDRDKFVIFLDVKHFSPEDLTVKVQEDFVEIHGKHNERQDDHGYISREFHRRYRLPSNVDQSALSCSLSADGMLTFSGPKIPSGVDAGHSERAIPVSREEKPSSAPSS
T3 sequence (P02510 1-175): T1 sequence (P02511 1-175) with T40A, F61I, T132A, V152A

[8] = Metal reduction capacity of tanned calf lens α-crystallin, Cu(II); assay type: biochemical; settings: α-crystallin preparation 100 μg/ml, Cu(II)-glycine 25 μM, one hour 37° C.
Experimental: Studies of Tanned Calf Lens Crystalin in Assay of Crystallin Protein for Metal Reduction Capacity—α-Crystallin (10 mg/ml) from calf lens was modified by reaction with 3-HK (100 μM), 3-HAA (100 μM), or ASC (100 μM) in PBS, ph 7.4, for 12 hours at 4° C. in the dark. Control samples were incubated with ascorbic acid (100 μM) or without added reductant. The tanning incubation solutions also contained triethylenetetramine (TETA, 200 μM) to prevent cross-linking of the protein. After incubation, free reductant was removed from the tanned α-crystallin preparations by exhaustive dialysis at 4EC in the dark utilizing PBS, pH 7.4, containing CHELEX™ 100 chelating ion exchange resin (BioRad, Hercules, Calif.). The various modified α-crystallin preparations (100 μg/ml) were co-incubated with either Cu(II)-glycine glycine (25 μM) or Fe(III)-citrate (25 μM) for one hour at 37° C. and assayed for metal reduction capacity using the BC and BP spectrophotometric assay as detailed above. Incubated and dialyzed α-crystallin (100 μg/ml) and untreated α-crystallin (100 μg/ml) preparations were used for procedural control.
3-HK: α-crystallin reduced nearly 100% of the available Cu(II) and approximately 20% of the available Fe(III). 3-HAA: α-crystallin reduced approximately 65% of the available Cu(II).

## Nc1ccccc1C(=O)O [ANA, anthranilic acid]
[1]
  hydrogen peroxide generated: approx. 0.3 μM
[2]
  Cu(II) reduction wave in presence of metabolite: largely unaffected
[3]
  effect of Cu(II) on superoxide generation: did not promote
  superoxide production: negligible

## C[S+](C)[O-] [DMSO, dimethyl sulfoxide]
[4]
  inhibition of αB-crystallin cross-linking by 3-HK or 3-HAA and Cu(II): did not inhibit

## O=C(O)CN(CCN(CC(=O)O)CC(=O)O)CCN(CC(=O)O)CC(=O)O [DTPA, diethylenetriaminepentaacetic acid, reference compound]
[5]
  effect of chelator on metal reduction by 3-HK, 3-HAA and XA: abolished

## Nc1ccccc1C(=O)C[C@H](N)C(=O)O [KYN, L-kynurenine]
[6]
  αB-crystallin cross-linking: does not induce
[7]
  capacity of altered α-crystallin to reduce metal and generate hydrogen peroxide: dramatically enhanced capacity
[1]
  hydrogen peroxide generated: approx. 0.3 μM
[2]
  Cu(II) reduction wave in presence of metabolite: largely unaffected
[3]
  effect of Cu(II) on superoxide generation: did not promote
  superoxide production: negligible

## OC[C@@H](O)[C@@H](O)[C@H](O)[C@H](O)CO [mannitol]
[4]
  inhibition of αB-crystallin cross-linking by 3-HK or 3-HAA and Cu(II): did not inhibit

## O=C(O)c1ccccc1O [salicylate]
[4]
  inhibition of αB-crystallin cross-linking by 3-HK or 3-HAA and Cu(II): did not inhibit

## catalase [reference compound]
[1]; Cu(II) 1 μM, catalase 1000 U/ml or TETA 200 μM
  effect on hydrogen peroxide generation by 3-HK or 3-HAA: abolished
[4]
  inhibition of αB-crystallin cross-linking by 3-HK or 3-HAA and Cu(II): neither catalase nor superoxide dismutase were capable of inhibiting

## superoxide dismutase [reference compound]
[4]
  inhibition of αB-crystallin cross-linking by 3-HK or 3-HAA and Cu(II): neither catalase nor superoxide dismutase were capable of inhibiting
[3]; superoxide dismutase 1000 U/ml
  effect on superoxide production by 3-HAA: removed

B1: 3-HAA: α-crystallin: calf lens α-crystallin modified (tanned) by reaction with 3-HAA, free metabolite removed by dialysis (protein, UniProt P02470 1-173; P02510 1-175, looked up)
Alpha-crystallin A chain: T3 sequence (P02470 1-173)
Alpha-crystallin B chain: T1 sequence (P02511 1-175) with T40A, F61I, T132A, V152A
modifications: modified with 3-hydroxyanthranilic acid
notes: calf lens α-crystallin modified (tanned) by reaction with 3-HAA, free metabolite removed by dialysis
[8]
  reduction of available Cu(II): approximately 65%
